# Test system: Trioza erytreae
# Assay type: in vivo
compound,measurement,setting,value
"CC1(S(=O)(=O)[O-])CC(=O)c2ccccc2C1=O.[Na+] (centres unmarked) [MSB, menadione sodium bisulphite]",trees that showed leaves with the typical symptoms of the Trioza erytreae attack,"Plot A 2000 trees, Plot B 300 trees, Plot C 100 trees, end of the summer of 2010",None
same,control of the Trioza erytreae attacks,"citrus trees, foliar treatment once a month with 80 ppm of MSB in aqueous solution from February 2010, assessed at the end of the summer of 2010",100%

# Reference: US20130225406A1 (priority 2010, published 2013)
